Tests used:
[1] = system: alpha-tubulin acetylation; assay: Time course of HDAC-2 induced tubulin acetylation in cell lines; assay type: cell-based; conditions: 200 nM
Description: Time Course of HDAC-2 Induced Tubulin Acetylation in Cell Lines

[2] = system: HCT 166 cells; assay: 2-D gel electrophoresis / western blotting with anti-acetyllysine of extracts of HDAC-2 treated cells; assay type: cell-based, human; conditions: HDAC-2 treated vs control, IEF pH 3-10
Description: For Identifying the protein, cell extracts of HDAC-2 treated and control HCT 166 cells are separated by 2-D gel electrophoresis with a broad range IEF gel (pH 3-10) in the first dimension and analyzed by western blotting with anti-acetyllysine.
One set of gels is used for immunoblotting with anti-acetyllysine antibody detection and a second set is reserved for staining of the gel with Coomassie blue.

[3] = system: Tubulin Acetylation in HCT 116 Tumor Xenografts; assay: Tubulin acetylation in HCT 116 tumor xenografts in mice (western blotting with anti-acetylated alpha-tubulin antibody); assay type: in vivo
Method: In order to correlate the antitumor activity of HDAC-2 with its induction of tubulin acetylation, levels of acetylated tubulin are examined in tumors of athymic mice bearing HCT 116 treated with HDAC-2 and control mice. Mice are dosed with 100 mg/kg of HDAC-2 and the tumors are dissected 3, 6, 16 or 24 h post dose. Tubulin acetylation levels are detected with antibodies specific for acetylated alpha-tubulin. […] Tumors are dissected 1 hour post dose and levels of acetylated tubulin determined by western blotting with the anti-acetylated alpha-tubulin antibody.

[4] = athymic mice bearing HCT 116, 100 mg/kg, intravenous

With `O=C(/C=C/c1ccc(CN(CCO)CCc2c[nH]c3ccccc23)cc1)NO` [HDAC-2, N-hydroxy-3-[4-[[(2-hydroxyethyl)[2-(1H-indol-3-yl)ethyl]-amino]methyl]phenyl]-2E-2-propenamide] the “time of maximal alpha-tubulin acetylation” value [1] was 4 h, the “acetylation of alpha-tubulin reached, relative to the maximal acetylation (at 4 hours)” value ([1]; 30 min after addition) was “more than 30%” and the “state of cells at last time point” value ([1]; 18 hours) was “cells are visibly damaged”. The “anti-acetyllysine immunostaining of cell extracts (histone bands and non-histone spot around pH 4.5, later identified as acetylated alpha-tubulin)” value [2] was “prominently stained bands of low molecular weight corresponding to histones are visible at the lower right corner as well as a non-histone spot around pH 4.5”, the “induction of tubulin acetylation in the tumors” value ([3]; HCT 116 tumor bearing mice, i.v. dose as low as 2 mg/kg, 1 hour post dose) was “able to induce tubulin acetylation” and the “Proliferating Cell Nuclear Antigen (PCNA) levels in tumors” value [3, 4] was “essentially invariant”. The “duration of increase in acetylated alpha-tubulin in tumors” value [3, 4] was “at least 8 h” and the “time to consistent increases in acetylated alpha-tubulin in tumors” value [3, 4] was at most 30 min.

Source: patent US20050227300A1, “Use of alpha-tubulin acetylation levels as a biomarker for protein deacetylase inhibitors” (priority 2001, published 2005)
